How the values were obtained:
Assay type in all cases: physicochemical
[1] = solubility in liquid crystal ZLI 2452 (saturated solution, comparison of absorbances); conditions: room temperature, in ZLI 2452
Method: The solubility was determined as follows:
50 mg of the dye was stirred at room temperature into 1 ml of liquid crystal for 1 week, the saturated solution was centrifuged off the residue, and the solubility was determined by comparing the absorbences.

[2] = order parameter S in liquid crystal ZLI 2452 (dichroic ratio by polarized absorbance); conditions: room temperature, in ZLI 2452
Method: The order parameter S was determined in accordance with the known equation [formula] in a commercial measurement cell of homogeneous edge orientation (polyimide). The dichroic ratio CR was determined by measuring the absorbences E^.parallel. (measurement with light polarized parallel to the preferential direction of the nematic phase) and E^.perp. (measurement with light polarized perpendicular to the preferential direction of the nematic phase) and applying the relationship [formula] the dye concentration being so chosen as to give an E^.parallel. within the range from 1 to 2. The measurements were carried out on an Hitachi U 3200 spectrophotometer.

[3] = absorption maximum in methylene chloride

| SMILES | Solubility L [%] (at RT) [1] | Order parameter S (at RT) [2] | λmax [nm] (CH2 Cl2) [3] |
| --- | --- | --- | --- |
| CCCCCCCCCCCCNc1ccc(N=Nc2ccc(N=Nc3ccc(N=Nc4ccc(OCCCCCCCC)cc4CC)cc3)cc2)c2ccccc12 [Example 15] | 2.0% | 0.81 | 535 nm |
| CCCCCCCCOc1ccc(N=Nc2ccc(N=Nc3ccc(N=Nc4ccc(OCc5ccc(CCCCC)cc5)c5ccccc45)cc3)cc2)c(CC)c1 [Example 12] | 2.4% | 0.79 | 441 nm |
| CCCCCCCCOc1ccc(N=Nc2ccc(N=Nc3ccc(N=Nc4ccc(OCc5ccc(CCCCC)cc5)cc4C)cc3)cc2)c(CC)c1 [Example 2] | 5.1% | 0.83 | 418 nm |
| CCCCCCCCOc1ccc(N=Nc2ccc(N=Nc3ccc(N=Nc4ccc(OCc5ccc(CCCCC)cc5)cc4CC)cc3)cc2)c(C)c1 [Example 3] | 5.3% | 0.82 | 418 nm |
| CCCCCCCCOc1ccc(N=Nc2ccc(N=Nc3ccc(N=Nc4ccc(OCc5ccc(OCCCCC)cc5)c5ccccc45)cc3)cc2)c(CC)c1 [Example 11] | 3.4% | 0.79 | 437 nm |
| CCCCC(CC)COc1ccc(N=Nc2ccc(N=Nc3ccc(N=Nc4ccc(OCc5ccccc5)cc4CC)cc3)cc2)c2ccccc12 (stereo not drawn) [Example 10] | 7.1% | 0.81 | 445 nm |
| CCCCCCCCOc1ccc(N=Nc2ccc(N=Nc3ccc(N=Nc4ccc(OCc5ccc(OCCCCC)cc5)cc4CC)cc3)cc2)c(CC)c1 [Example 5] | 3.5% | 0.79 | 418 nm |
| CCCCCc1ccc(COc2ccc(N=Nc3ccc(N=Nc4ccc(N=Nc5ccc(OCC(CC)CCCC)cc5CC)cc4)cc3)c3ccccc23)cc1 (stereo not drawn) [Example 14] | 5.0% | 0.81 | 443 nm |
| CCCCC(CC)COc1ccc(N=Nc2ccc(N=Nc3ccc(N=Nc4ccc(OCc5ccccc5)cc4CC)c4ccccc34)cc2)c2ccccc12 (stereo not drawn) [Example 20] | 1.3% | 0.80 | 489 nm |
| CCCCC(CC)COc1ccc(N=Nc2ccc(N=Nc3ccc(N=Nc4ccc(OCc5ccccc5)c5ccccc45)cc3)c3ccccc23)c(CC)c1 (stereo not drawn) [Example 19] | 1.6% | 0.79 | 486 nm |
| CCCCCOc1ccc(COc2ccc(N=Nc3ccc(N=Nc4ccc(N=Nc5ccc(OCC(CC)CCCC)cc5CC)cc4)cc3)c3ccccc23)cc1 (stereo not drawn) [Example 13] | 2.9% | 0.79 | 435 nm |
| CCCCC(CC)COc1ccc(N=Nc2ccc(N=Nc3ccc(N=Nc4ccc(OCc5ccccc5)cc4CC)c(OC)c3)cc2)c2ccccc12 (stereo not drawn) [Example 21] | 5.5% | 0.79 | 459 nm |
| CCCCC(CC)COc1ccc(N=Nc2ccc(N=Nc3ccc(N=Nc4ccc(OCc5ccccc5)cc4C)cc3)cc2)c(CC)c1 (stereo not drawn) [Example 1] | 18.7% | 0.815 | 417 nm |
| CCCCC(CC)COc1ccc(N=Nc2ccc(N=Nc3ccc(N=Nc4ccc(OCc5ccccc5)c5ccccc45)cc3)cc2)c(CC)c1 (stereo not drawn) [Example 9] | 2.0% | 0.81 | 443 nm |
| CCCCCCCCOc1ccc(N=Nc2ccc(N=Nc3ccc(N=Nc4ccc(OCc5ccccc5)cc4CC)cc3)cc2)c(CC)c1 [Example 4] | 6.4% | 0.79 | 419 nm |
| CCCCCCCCCCCCNc1ccc(N=Nc2ccc(N=Nc3ccc(N=Nc4ccc(OCC(CC)CCCC)cc4CC)cc3)cc2)c2ccccc12 (stereo not drawn) [Example 16] | 8.0% | 0.80 | 533 nm |

Reference: patent US4952678A, “Trisazo dyes” (BASF Aktiengesellschaft, priority 1986, dated 1990)
